Measured values as given in article PMC5845896, “A Novel Bifunctional Amino Acid Racemase With Multiple Substrate Specificity, MalY From Lactobacillus sakei LT-13: Genome-Based Identification and Enzymological Characterization” (Frontiers in Microbiology, 2018).
Changes are numbered by the printed parent chain.

Key:
[1] = target: MalY from Lactobacillus sakei LT-13 (wild type) (Lactobacillus sakei LT-13); assay: SEC; Superdex 200 Increase 10/300 GL, 20 mM potassium phosphate pH 7.5 with 0.15 M KCl, 0.75 mL/min; molecular weight estimated against markers (thyroglobulin, apoferritin, β-amylase, BSA, carbonic anhydrase)
[2] = target: T1, Ls-MalY (Lactobacillaceae, UniProt A0A223K4L6); assay: UV-vis absorption spectrum ([…] nm peak), hydroxylamine treatment; assay type: binding; conditions: 20 mM potassium phosphate pH 7.5; as purified; covalent, K233
T1 construct: full length in pET-22b(+), C-terminal hexa-histidine tag, E. coli BL21(DE3), subunit ~46 kDa with tag, 281 kDa by gel filtration, homohexamer
T1 sequence (A0A223K4L6 1-391): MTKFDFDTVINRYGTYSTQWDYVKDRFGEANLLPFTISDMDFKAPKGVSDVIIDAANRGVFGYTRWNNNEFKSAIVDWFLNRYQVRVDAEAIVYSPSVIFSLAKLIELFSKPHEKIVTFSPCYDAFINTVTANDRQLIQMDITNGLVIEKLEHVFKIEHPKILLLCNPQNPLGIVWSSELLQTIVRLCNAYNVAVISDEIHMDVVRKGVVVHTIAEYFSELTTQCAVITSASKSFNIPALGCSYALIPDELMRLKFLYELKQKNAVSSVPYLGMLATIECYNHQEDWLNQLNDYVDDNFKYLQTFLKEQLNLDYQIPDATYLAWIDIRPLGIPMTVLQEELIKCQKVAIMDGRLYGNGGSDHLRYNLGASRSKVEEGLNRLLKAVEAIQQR

[3] = target: T2, Ls-MalY (Lactobacillaceae, UniProt A0A223K4L6, Y123A); assay: UV-vis absorption spectrum, hydroxylamine treatment; assay type: binding; conditions: 20 mM potassium phosphate pH 7.5; as purified
T2 construct: full length in pET-22b(+), C-terminal hexa-histidine tag, E. coli BL21(DE3), subunit ~46 kDa with tag, 281 kDa by gel filtration, homohexamer
T2 sequence (A0A223K4L6 1-391 Y123A): T1 sequence (A0A223K4L6 1-391) with Y123A

stoichiometry N [1]	Molecule	UV-vis absorption spectrum (420 nm peak), hydroxylamine treatment [2]	UV-vis absorption spectrum, hydroxylamine treatment [3]
6	MalY from Lactobacillus sakei LT-13 (wild type) (enzyme)		
	Cc1ncc(COP(=O)(O)O)c(C=O)c1O [PLP]	the absorption peak was abolished by treatment with hydroxylamine (Figure 3A), suggesting that Ls-MalY bound PLP	These spectral features suggest that the Y123A mutant bound PLP
